Assay results: patent US20060234987A1, “Neuroprotective benzo 1 3 oxathiol 2 ones” (priority 2003, published 2006)

system: SCG neurons; assay: Protection of SCG neurons from anti-NGF killing; assay type: cell-based, Sprague Dawley rats; conditions: Rattus norvegicus, Neuron, 48 h, read-out: IC50, rescue from anti-NGF killing of cultured SCG neurons
Protocol: Neurotrophins are critical to the growth, development, and survival of small fiber neurons of the PNS. SCG neurons are neurons of the PNS that undergo apoptosis upon NGF withdrawal. In a typical experiment SCG neurons are cultured in the presence of NGF, which induces survival and neurite out-growth. After 5 days the NGF is removed by either the addition of anti-NGF polyclonal antibody (Sigma) or by repeated washings (4 times) with NGF free media, resulting in the apoptosis of up to 90% of the neurons after 48 hours, as measured by MTS staining. The addition of selected compounds of Formula I to the final cellular media provides upwards of 100% protection, at drug concentrations ranging from 10 to 50 μM (see Example 62).
Protection of SCG neurons from anti-NGF killing. SCG neurons were isolated from day 1 neonatal Sprague Dawley rats, plated at a cell density of 5,000 cells/well, and incubated in Biowhittaker Ultraculture containing 1% Penstrep, 1% L-glutamine, 0.7% ARAC, 3% rat serum, and NGF (50 ng/mL, Calomone Labs), at 37° C., under a 5% CO2 atmosphere. After 4 days the cells were treated with anti-NGF antibody (Sigma). At this time compound was added and the cells were maintained serum and NGF free for 48 hours, at which time viability of the neurons was assessed using Alamar Blue (Medicorp) staining. Table 3 summarizes selected IC50 values from compounds tested using this protocol.

First: Cc1cc(OC(=O)NC2CCCCC2)cc2sc(=O)oc12 [Compound 31, 5-(N-Cyclohexylcarbamoyloxy)-7-methylbenzo[1,3]oxathiol-2-one]
Second: O=c1oc2c(-c3ccc(Br)cc3)cc(O)cc2s1 [Compound 44, 7-(4-bromophenyl)-5-hydroxybenzo[1,3]oxathiol-2-one]
The IC50 of the first is 1.8-fold higher: 35 µM for the first, 20 µM for the second. The second is the more potent here.

Compound `O=c1oc2c(-c3ccc(Cl)cc3Cl)cc(O)cc2s1` [Compound 41, 7-(2,4-dichlorophenyl)-5-hydroxybenzo[1,3]oxathiol-2-one] has an IC50 of 7 µM.

same assay, conditions: Rattus norvegicus, Neuron; anti-NGF antibody, 48 hours, Alamar Blue viability; read-out: IC50, rescue from anti-NGF killing of cultured SCG neurons

`CCSc1cc(O)cc2sc(=O)oc12` [Compound 5, 7-Ethylsulfanyl-5-hydroxybenzo[1,3]oxathiol-2-one] and `CCc1ccccc1Sc1cc(O)cc2sc(=O)oc12` [Compound 12, 7-((2-Ethylphenyl)sulfanyl)-5-hydroxybenzo[1,3]oxathiol-2-one] cannot be ordered by IC50: over 30 µM for the first, over 30 µM for the second.

First: Cc1cccc(C)c1Sc1cc(O)cc2sc(=O)oc12 [Compound 13, 7-((2,6-Dimethylphenyl)sulfanyl)-5-hydroxybenzo[1,3]oxathiol-2-one]
Second: CC(C)c1ccccc1Sc1cc(O)cc2sc(=O)oc12 [Compound 14, 5-hydroxy-7-((2-iso-Propylphenyl)sulfanyl)benzo[1,3]oxathiol-2-one]
The IC50 of the first is higher: over 30 µM for the first, 30 µM for the second.

Going from `CC(C)(C)c1ccc(Sc2cc(O)cc3sc(=O)oc23)cc1` [Compound 17, 7-((4-tert-Butylphenyl)sulfanyl)-5-hydroxybenzo[1,3]oxathiol-2-one] to `O=c1oc2c(Sc3ccccc3C(F)(F)F)cc(O)cc2s1` [Compound 18, 5-hydroxy-7-((2-Trifluoromethylphenyl)sulfanyl)benzo[1,3]oxathiol-2-one], the IC50 rises from 25 µM to over 30 µM. The first is the more potent here.

`O=c1oc2ccc(O)c(Sc3nc4ccccc4s3)c2s1` [Compound 21, 4-((Benzothiazol-2-yl)sulfanyl)-5-hydroxybenzo[1,3]oxathiol-2-one] and `O=c1oc2c([S+]([O-])c3ccc4ccccc4c3)cc(O)cc2s1` (stereo not shown) [Compound 24, 5-Hydroxy-7-((2-naphthyl)sulfinyl)benzo[1,3]oxathiol-2-one] cannot be ordered by IC50: 50 µM for the first, over 30 µM for the second.

First: O=c1oc2c(Sc3ccccc3)cc(O)c(Sc3ccc4ccccc4c3)c2s1 [Compound 29, 5-hydroxy-4-(2-naphthylthio)-7-((phenyl)sulfanyl)benzo[1,3]oxathiol-2-one]
Second: O=c1oc2c(-c3ccc(-c4ccccc4)cc3)cc(O)cc2s1 [Compound 54, 7-biphenyl-5-hydroxybenzo[1,3]oxathiol-2-one]
The IC50 of the first is higher: over 30 µM for the first, 23 µM for the second. The second is the more potent here.

Going from `O=C(Oc1cc(-c2ccccc2)c2oc(=O)sc2c1)c1sc2ccccc2c1Cl` [Compound 33, 5-(3-chlorobenzothiophen-2-ylcarbonyloxy)-7-phenylbenzo[1,3]oxathiol-2-one] to `Cc1cccc(-c2cc(OC(=O)c3ccccc3Cl)cc3sc(=O)oc23)c1` [Compound 48, 5-(2-chlorophenylcarbonyloxy)-7-(3-methylphenyl)benzo[1,3]oxathiol-2-one], the IC50 falls from over 30 µM to 28 µM.

`O=c1oc2c(-c3ccccc3Cl)cc(O)cc2s1` [Compound 36, 7-(2-chlorophenyl)-5-hydroxybenzo[1,3]oxathiol-2-one] and `O=c1oc2c(-c3cc(Cl)ccc3Cl)cc(O)cc2s1` [Compound 42, 7-(2,5-dichlorophenyl)-5-hydroxybenzo[1,3]oxathiol-2-one] are within 1.5-fold of each other in IC50: 16 µM for the first, 17 µM for the second.

First: O=c1oc2c(-c3cccc(Cl)c3)cc(O)cc2s1 [Compound 37, 7-(3-chlorophenyl)-5-hydroxybenzo[1,3]oxathiol-2-one]
Second: O=c1oc2c(-c3cccc(I)c3)cc(O)cc2s1 [Compound 45, 5-hydroxy-7-(3-iodophenyl)benzo[1,3]oxathiol-2-one]
The IC50 of the first is higher: over 30 µM for the first, 7 µM for the second.

Compared with `O=c1oc2c(-c3ccc(Cl)cc3)cc(O)cc2s1` [Compound 39, 7-(4-chlorophenyl)-5-hydroxybenzo[1,3]oxathiol-2-one], `COc1ccc(-c2cc(O)cc3sc(=O)oc23)cc1` [Compound 53, 5-hydroxy-7-(4-methoxyphenyl)benzo[1,3]oxathiol-2-one] is higher in IC50: 30 µM for the first, over 30 µM for the second. The first is the more potent here.

First: O=c1oc2c(-c3ccc(Cl)c(Cl)c3)cc(O)cc2s1 [Compound 43, 7-(3,4-dichlorophenyl)-5-hydroxybenzo[1,3]oxathiol-2-one]
Second: O=c1oc2ccc(Nc3c(Cl)cc(Br)cc3Cl)cc2s1 [Compound 58, 5-(4-bromo-2,6-dichloroanalino)benzo[1,3]oxathiol-2-one]
The IC50 of the first is 7.1-fold lower: 7 µM for the first, 50 µM for the second.

First: Cc1cccc(C)c1-c1cc2oc(=O)sc2cc1O [Compound 50, 6-(2,6-dimethylphenyl)-5-hydroxybenzo[1,3]oxathiol-2-one]
Second: CCNc1cc(C)cc2sc(=O)oc12 [Compound 56, 7-ethylamino-5-methylbenzo[1,3]oxathiol-2-one]
The IC50 of the first is 1.8-fold lower: 22 µM for the first, 40 µM for the second. The first is the more potent here.

In the case of `O=c1oc2c3c4c(cc2s1)CCCN4CCC3` [Compound 57], the IC50 is reported as 50 µM.

same assay, conditions: anti-NGF antibody, 48 hours, Alamar Blue viability; read-out: IC50, rescue from anti-NGF killing of cultured SCG neurons

Compound `O=c1oc2c([S+]([O-])Cc3ccccc3)cc(O)cc2s1` (stereo not shown) [Compound 6] has an IC50 of over 30 µM.

same assay, conditions: at 10 μM compound

In the case of `CC(C)c1ccccc1Sc1cc2oc(=O)sc2cc1O` [Compound 15, 5-hydroxy-6-((2-iso-Propylphenyl)sulfanyl)benzo[1,3]oxathiol-2-one], the “rescue from anti-NGF killing, % at 10 μM” value is reported as 40% at 10 μM.

same assay, conditions: at 30 μM compound

Going from `CC(C)c1ccc(Sc2cc(O)cc3sc(=O)oc23)cc1` [Compound 16, 7-(4-iso-Propylphenylthio)-5-hydroxybenzo[1,3]oxathiol-2-one] to `O=c1oc2c(-c3ccc(F)cc3)cc(O)cc2s1` [Compound 35, 7-(4-fluorophenyl)-5-hydroxybenzo[1,3]oxathiol-2-one], the “rescue from anti-NGF killing, % at 30 μM” value falls from 42% at 30 μM to 40% at 30 μM.

With `O=c1oc2c(-c3ccccc3C(F)(F)F)cc(O)cc2s1` [Compound 51, 5-hydroxy-7-(2-trifluoromethylphenyl)benzo[1,3]oxathiol-2-one] the “rescue from anti-NGF killing, % at 30 μM” value was 38% at 30 μM.

same assay, conditions: at 50 μM compound

`O=C(Oc1cc(-c2cccc(Cl)c2)c2oc(=O)sc2c1)c1ccccc1Cl` [Compound 38, 5-(2-chlorophenylcarbonyloxy)-7-(3-chlorophenyl)benzo[1,3]oxathiol-2-one] and `Cc1cccc(C)c1-c1cc(O)cc2sc(=O)oc12` [Compound 49, 7-(2,6-dimethylphenyl)-5-hydroxybenzo[1,3]oxathiol-2-one] are the same in “rescue from anti-NGF killing, % at 50 μM” value: 40% at 50 μM for the first, 40% at 50 μM for the second.

For `CCc1cccc(CC)c1Nc1ccc2oc(=O)sc2c1` [Compound 59, 6-(2,6-diethylanalino)benzo[1,3]oxathiol-2-one], the “rescue from anti-NGF killing, % at 50 μM” value was 38% at 50 μM.
